Experimental data taken from US10525054B2 (dated 2020).
Like-named read-outs stand apart in the source and are kept apart here.

Assays:
[1] = test system: acetic acid induced writhing in mice; test: Acetic acid writhing assay in mice; assay type: in vivo; conditions: for Mean Number of writhes: in combination with Diclofenac (3 mg/kg), 30 minutes prior to i.p. 0.5% acetic acid, counted 0-20 minutes
squirrel monkeys = conditions: cited from earlier work
cocaine-trained rats [2] = conditions: cited from earlier work
cocaine-trained rats [3] = conditions: doses of up to 3.2 mg/kg/injection; three-day substitution tests and progressive ratio tests; cited from earlier work

Question: Which results are given for COCCOCCOCCOCCO[C@H]1CC[C@@]2(O)[C@H]3Cc4ccc(OC)c5c4[C@@]2(CCN3C)[C@H]1O5 [α-6-mPEG4-O-hydroxycodone]?
Answer: Mean Number of writhes ([1]; dose 5 mg/kg oral): 13; Mean Number of writhes ([1]; dose 10 mg/kg oral): 4.8

Question: For CN1CC[C@]23c4c5ccc(O)c4O[C@H]2[C@@H](O)C=C[C@H]3[C@H]1C5 [morphine, reference compound], which “injection lever responses (% ILR)” value (squirrel monkeys; 0.03 mg/kg/injection IV) is on record?
Answer: The value was 100%.

Question: Which results are given for COc1ccc2c3c1O[C@H]1C(=O)CC[C@@]4(O)[C@@H](C2)N(C)CC[C@]314 [oxycodone]?
Answer: injection lever responses (% ILR) (squirrel monkeys; 0.1 mg/kg/injection IV): 100%; mean progressive ratio breakpoint (cocaine-trained rats [2]; 0.01 mg/kg/infusion): 56; mean progressive ratio breakpoint (cocaine-trained rats [2]; 0.032 mg/kg/infusion): 79

Question: Which progressive ratio breakpoint (cocaine-trained rats [2]; maintenance dose 0.56 mg/kg/infusion) does the source give for COC(=O)[C@H]1[C@@H](OC(=O)c2ccccc2)C[C@@H]2CC[C@H]1N2C [cocaine] here?
Answer: The progressive ratio breakpoint was 128 responses.

Question: For COCCOCCOCCOCCOCCOCCO[C@H]1CC[C@@]2(O)[C@H]3Cc4ccc(OC)c5c4[C@@]2(CCN3C)[C@H]1O5 [α-6-mPEG6-O-hydroxycodone], which “Mean Number of writhes” value ([1]; dose 5 mg/kg oral) is on record?
Answer: Its value is 6.2.

Question: And the “Mean Number of writhes” value ([1]; dose 10 mg/kg oral)?
Answer: Its value is 4.

Question: And the “injection lever responses (% ILR)” value (squirrel monkeys; 0.32 mg/kg IV)?
Answer: Its value is 22%.

Question: What about the “injection lever responses (% ILR)” value (squirrel monkeys; 1.0 mg/kg IV) of the same compound?
Answer: The value was 39%.

Question: And the “injection lever responses (% ILR)” value (squirrel monkeys; 3.2 mg/kg IV)?
Answer: The value was 50%.

Question: And the “exclusive injection lever responding, number of subjects” value (squirrel monkeys; highest dose tested, 3.2 mg/kg/injection, 3-4 subjects)?
Answer: The value was “only two subjects”.

Question: And the reinforcing strength (squirrel monkeys; highest doses tested of 3.2 mg/kg/injection)?
Answer: The reinforcing strength was “marked reduction in reinforcing strength”.

Question: And the “potency in self-administration relative to oxycodone and morphine” value (squirrel monkeys; monkeys)?
Answer: The value was “significantly lower potency than oxycodone and morphine”.

Question: And the “behavioral evidence of positive reinforcement” value (cocaine-trained rats [3])?
Answer: Its value is “no behavioral evidence of positive reinforcement”.

Question: And the “reinforcing properties in progressive ratio tests” value (cocaine-trained rats [2]; behaved like saline)?
Answer: The value was “no reinforcing properties”.

Question: What about the “progressive ratio breakpoints compared with saline” value (cocaine-trained rats [2]; five out of six tested doses) of the same compound?
Answer: Its value is “lower than that produced by saline”.

Question: For COc1ccc2c3c1O[C@H]1C(=O)CC[C@H]4[C@@H](C2)N(C)CC[C@]314 [hydrocodone], which progressive ratio breakpoint (cocaine-trained rats [2]; 0.18 mg/kg/infusion) is on record?
Answer: Its progressive ratio breakpoint is 114.

Question: With COCCOCCOCCOCCOCCO[C@H]1CC[C@@]2(O)[C@H]3Cc4ccc(OC)c5c4[C@@]2(CCN3C)[C@H]1O5 [α-6-mPEG5-O-hydroxycodone] as the compound, how does the “reduction of writhings, combination versus each compound individually (FIG. 2)” value ([1]; combination with diclofenac (3 mg/kg)) read?
Answer: Its value is “measured reduction of writhings that is greater than the number of writhings when each compound is individually administered”.

Question: What about the “Mean Number of writhes” value ([1]; dose 5 mg/kg oral) of the same compound?
Answer: The value was 7.2.

Question: What about the “Mean Number of writhes” value ([1]; dose 10 mg/kg oral) of the same compound?
Answer: The value was 1.4.
